# Assay results from US7884136B2, “Modified-release formulations of a bupropion salt” (Biovail Laboratories International S.R.L., priority 2005, dated 2011).
# Where two headings read alike, the source gives them in different places.
# How the values were obtained:
# [1] = Moisture content of bupropion salts by KF; format: physicochemical; conditions: original API salts
# Description: (§1) The eight salts were first evaluated by HPLC, KF, pH and DSC for purity, water content, aqueous pH and possible polymorphs.
# (§2) The salts were analysed by DSC (at 10° C./min from 30° C. up to 400° C.) and the pH (aq. 0.5%), and the moisture content by KF were also measured. The TGA was performed on the HCl, maleate, tosylate and HBr salts.
# [2] = pH of 0.5% aqueous solution of bupropion salts; format: physicochemical; conditions: 0.5% aqueous solution, original API salts
# Description: as §1, §2
# [3] = Forced degradation stability study of bupropion salts spiked with placebo/excipients, closed vials, 40° C./75% RH, HPLC assay and impurities; conditions: for Content of impurity 3-CBZ, order of salts / Content of impurity 852U77, order of salts / Total imp., order of salts: 32 days; for Stability in the forced degradation stability studies, overall: DS and spiked DS
# Description: The stability of the salts was evaluated based on the formation of the main degradation products (see below) as determined by HPLC analysis and the % potency (or assay) of the API, after specific time periods in the stability chamber. The effect of the addition of solvents, such as water, ethanol and isopropyl alcohol, was also studied.
# The samples of each salt and the spiked salts with the bupropion HCl XL were prepared under the conditions mentioned in Table 4. […] The stability of the bupropion salts were evaluated based on the formation of the main degradation product 3-chlorobenzoic acid (3-CBZ) and the intermediate degradation products diketone 827U76 and the ketohydroxyl derivatives (20U78 and 852U77) (Scheme 2).
# As mentioned above, the stability samples were prepared in 2 mL vials and used directly for assay and impurity analysis by HPLC without further sample preparations to minimize errors.
# [4] = Recrystallization screen for bupropion hydrobromide polymorphic forms (PXRD); format: physicochemical
# Description: (§3) It is well known that organic molecules can crystallize into solid forms. Moreover the same organic compound may assume different crystalline arrangements in solid form, depending on the conditions under which the crystal product is formed. This phenomenon is commonly known as polymorphism. A study was undertaken to explore the polymorphic forms of bupropion hydrobromide. The crystal forms of the products obtained in this study were determined by powder X-ray diffraction (PXRD). A RIGAKU miniflex instrument (Radiation Cu K∝, generator 30 KV, filter Ni) was used to obtain the PXRD data.
# Polymorphic form II was obtained by recrystallization of form 1 from solvents or mixtures of solvents such as acetone-water, methanol, dichloromethane, toluene-methanol and dimethylcarbonate-methanol. Polymorphic form III was obtained by recrystallization of polymorphic form I in methanol. Table 80 provides a list of recrystallization conditions and the polymorphic form obtained under each set of conditions.
# [5] = Stability of bupropion HBr polymorphic forms I, II and III by PXRD under ICH conditions; format: physicochemical; conditions: hydrobromide; for PXRD profile / crystalline form after storage (words): ICH conditions 40° C./75% r.h., 1 month
# Description: as §3, with “A study was undertaken to explore the polymorphic forms of bupropion hydrobromide.” left out
# The three polymorphic forms were subjected to stability testing. […] Samples of the polymorphic forms II and III were tested after 1 month under the same accelerated stability conditions.
# Samples of bupropion HBr form I were subjected to the conditions for the accelerated stability study as described in Example 10 and the shelf life stability study as described in Example 11.
# 10 g of bupropion HBr form I were dissolved in a mixture of 170 ml of acetone and 7 ml of water. The mixture was brought to reflux with dissolution of the solid. The solution was then cooled to room temperature. After one night the precipitate formed was filtered and dried at 40° C. under vacuum (30 mmHg) for 12 hours. […] The crystalline form was checked after maintaining the product under these conditions for 1 month.
# The mixture was brought to reflux obtaining complete dissolution of the solid. The solution was then cooled to room temperature without stirring and left in these conditions for 18 hours. The resulting crystalline solid was then filtered and dried under vacuum (30 mmHg) at 50° C. for 4 hours. […] The crystalline form was checked after maintaining the product in these conditions for 1 month.
# [6] = cited from earlier work
# [7] = recrystallized product, solvent/cosolvent differ per trial, trial no. in label
# [8] = Mono- and Diglyceride Surfactants
# [9] = Propylene Glycol Fatty Acid Esters
# [10] = PEG-Fatty Acid Monoester Surfactants
# [11] = PEG-Fatty Acid Diester Surfactants
# [12] = Lower Alcohol Fatty Acid Ester Surfactants, as reported by the manufacturer
# [13] = Ionic Surfactants, as reported by the manufacturer
compound,measurement,setting,value
Bupropion Fumarate,"KF (moisture content), Original (Initial APIs)",[1],0.09%
same,"pH (aq. 0.5%), Original (Initial APIs)",[2],3.84
same,"Content of impurity 3-CBZ, order of salts","[3]; In IPA/EtOH, closed vials",maleate > HBr > HCl > Fumarate
same,"Content of impurity 852U77, order of salts","[3]; In IPA/EtOH, closed vials",fumarate > HBr ≈ HCl ≈ maleate ≈ tosylate
same,"Total imp., order of salts","[3]; In IPA/EtOH, closed vials",fumarate > maleate > HBr > HCl > tosylate
same,"Content of impurity 3-CBZ, order of salts","[3]; In water, closed vials",HCl > HBr ≈ maleate ≈ fumarate
same,"Content of impurity 852U77, order of salts","[3]; In water, closed vials",fumarate > HBr > maleate > HCl
same,"Total imp., order of salts","[3]; In water, closed vials",fumarate > HBr > HCl > tosylate > maleate
Br.CC(NC(C)(C)C)C(=O)c1cccc(Cl)c1 (stereo not drawn) [Bupropion Hydrobromide 097],K.F. (%),[4]; [7],0.06%
tartrate,Stability in the 10 days forced degradation study,"[3]; 10 days, 40° C./75% RH, closed vials, with or without excipients",not stable
same,"Stability in the forced degradation stability studies, overall",[3]; 40° C./75% RH,very poor
Br.CC(NC(C)(C)C)C(=O)c1cccc(Cl)c1 (stereo not drawn) [Bupropion Hydrobromide 099],K.F. (%),[4]; [7],0.12%
"Br.CC(NC(C)(C)C)C(=O)c1cccc(Cl)c1 (stereo not drawn) [Form II, bupropion hydrobromide]",Stability of the polymorphic form (words),"[5]; ICH conditions 40° C., 75% R.H., listed as form II",quite stable
same,PXRD profile / crystalline form after storage (words),[5]; listed as bupropion HBr form II,still in form II
same,PXRD profile / crystalline form after storage (words),[5]; listed as form II,no change in the PXRD profile
Br.CC(NC(C)(C)C)C(=O)c1cccc(Cl)c1 (stereo not drawn) [Bupropion Hydrobromide 117],K.F. (%),[4]; [7],0.32%
Br.CC(NC(C)(C)C)C(=O)c1cccc(Cl)c1 (stereo not drawn) [Bupropion Hydrobromide 098A],K.F. (%),[4]; [7],0.13%
Br.CC(NC(C)(C)C)C(=O)c1cccc(Cl)c1 (stereo not drawn) [Bupropion Hydrobromide 113],K.F. (%),[4]; [7],0.39%
Br.CC(NC(C)(C)C)C(=O)c1cccc(Cl)c1 (stereo not drawn) [Bupropion Hydrobromide 116],K.F. (%),[4]; Form I in rotavapor 100° C. 24 h,0.45%
Br.CC(NC(C)(C)C)C(=O)c1cccc(Cl)c1 (stereo not drawn) [Bupropion Hydrobromide 111],K.F. (%),[4]; [7],0.32%
CCCCCCCC(=O)OCC(O)CO (stereo not drawn) [Glyceryl caprylate],HLB,[6]; [8],5-6
CCCCCCCCCCCC(=O)OCC(C)OC(=O)CCCCCCCCCCC (stereo not drawn) [Propylene glycol dilaurate],HLB,[6]; [9],>6
Sucrose monopalmitate,HLB,"[6]; Sugar Ester Surfactants, as reported by the manufacturer",>10
PEG-12 stearate,HLB,[6]; [10],14
PEG-400 distearate,HLB,[6]; [11],>10
Polyglyceryl-10 pentaoleate,HLB,[6]; Polyglycerized Fatty Acids,3.5
CCCCCCCCCC(=O)OCC(O)CO (stereo not drawn) [Monocaprin],HLB,[6]; [8],<10
Polyglyceryl-6 oleate,HLB,[6]; Polyglycerized Fatty Acids,9
PEG-6 dilaurate,HLB,[6]; [11],9.8
PEG-4 stearate,HLB,[6]; [10],6.5
Polyglyceryl-3 dioleate,HLB,[6]; Polyglycerized Fatty Acids,<10
Polyglyceryl-10 decaisostearate,HLB,[6]; Polyglycerized Fatty Acids,<10
Polyglyceryl-3 distearate,HLB,[6]; Polyglycerized Fatty Acids,<10
CCCCC/C=C\C/C=C\CCCCCCCC(=O)OCC(O)CO (stereo not drawn) [Glycerol monolinoleate],HLB,[6]; [8],3-4
CCCCCCCC/C=C\CCCCCCCC(=O)OCC [Ethyl oleate],HLB,[6]; [12],<10
Br.CC(NC(C)(C)C)C(=O)c1cccc(Cl)c1 (stereo not drawn) [Bupropion Hydrobromide 098B],K.F. (%),[4]; [7],0.16%
PEG-15 stearate,HLB,[6]; [10],14
CCCCCCCC(=O)OCC(O)CO (stereo not drawn) [Monocaprylin],HLB,[6]; [8],<10
Bupropion succinate,"KF (moisture content), Original (Initial APIs)",[1],0.13%
same,"pH (aq. 0.5%), Original (Initial APIs)",[2],4.82
CCCCCCCC/C=C\CCCCCCCC(=O)OCC(O)CO (stereo not drawn) [Glyceryl monooleate],HLB,[6]; [8],3-4
Glyceryl monostearate,HLB,[6]; [8],4.4
PEG-12 dilaurate,HLB,[6]; [11],11.7
PEG-30 cholestanol,HLB,[6]; Sterol and Sterol Derivative Surfactants,>10
PEG-12 distearate,HLB,[6]; [11],10.7
Br.CC(NC(C)(C)C)C(=O)c1cccc(Cl)c1 (stereo not drawn) [Bupropion Hydrobromide 112],K.F. (%),[4]; [7],0.18%
Polyglyceryl-4 oleate,HLB,[6]; Polyglycerized Fatty Acids,5-7
CCCCC/C=C\C/C=C\CCCCCCCC(=O)OC(C)C [Isopropyl linoleate],HLB,[6]; [12],<10
Br.CC(NC(C)(C)C)C(=O)c1cccc(Cl)c1 (stereo not drawn) [Bupropion Hydrobromide 122],K.F. (%),[4]; [7],1.3%
oxalate,"Stability in the forced degradation stability studies, overall",[3]; 40° C./75% RH,very poor
PEG 4-100 monolaurate,HLB,[6]; [10],>9
CCCCCCCCCCCC(=O)OCC(O)CO (stereo not drawn) [Monolaurin],HLB,[6]; [8],<10
PEG-9 oleate,HLB,[6]; [10],>10
CCCCCCCC/C=C\CCCCCCCC(=O)[O-].[Na+] [Sodium oleate],HLB,[6]; [13],18
PEG-12 ricinoleate,HLB,[6]; [10],>10
PEG-600 oleate,HLB,[6]; [10],>10
PEG-40 oleate,HLB,[6]; [10],17.4
Distearin,HLB,[6]; [8],<10
PEG-6 distearate,HLB,[6]; [11],6.5
CCCCCCCCCCCC(=O)OCC(O)CO (stereo not drawn) [Glyceryl laurate],HLB,[6]; [8],4
Sorbitan trioleate,HLB,"[6]; Sorbitan Fatty Acid Ester Surfactants, as reported by the manufacturer",4.3
PEG-6 dioleate,HLB,[6]; [11],7.2
Polyglyceryl-2 dioleate,HLB,[6]; Polyglycerized Fatty Acids,7
Polyglyceryl-3 oleate,HLB,[6]; Polyglycerized Fatty Acids,6.5
CCCCCCCCCCCCCCCCCC(=O)OCC(C)OC(=O)CCCCCCCCCCCCCCCCC (stereo not drawn) [Propylene glycol distearate],HLB,[6]; [9],>6
PEG-400 oleate,HLB,[6]; [10],>10
CC(NC(C)(C)C)C(=O)c1cccc(Cl)c1.CC(NC(C)(C)C)C(=O)c1cccc(Cl)c1.O=C(O)C(O)C(O)C(=O)O (stereo not drawn) [Bupropion tartrate neutral],"KF (moisture content), Original (Initial APIs)",[1],0.14%
same,"pH (aq. 0.5%), Original (Initial APIs)",[2],3.62
PEG-5 stearate,HLB,[6]; [10],9.5
PEG-200 oleate,HLB,[6]; [10],>10
PEG-30 stearate,HLB,[6]; [10],>10
CCCCCCCCCCCCCCCCCC(=O)OCC(O)CO (stereo not drawn) [Glycerol monostearate],HLB,[6]; [8],5-9
CCCCCCCCCCCCOS(=O)(=O)[O-].[Na+] [Sodium lauryl sulfate (dodecyl)],HLB,[6]; [13],40
CC(NC(C)(C)C)C(=O)c1cccc(Cl)c1.O=C(O)C(O)C(O)C(=O)O (stereo not drawn) [Bupropion tartrate acid],"KF (moisture content), Original (Initial APIs)",[1],0.18%
same,"pH (aq. 0.5%), Original (Initial APIs)",[2],3.62
PEG-20 glyceryl oleate,HLB,[6]; PEG Glycerol Fatty Acid Esters,>10
PEG-10 dipalmitate,HLB,[6]; [11],>10
PEG 4-100 monostearate,HLB,[6]; [10],>6
PEG-2 oleate,HLB,[6]; [10],4.5
PEG-9 stearate,HLB,[6]; [10],>10
PEG-100 stearate,HLB,[6]; [10],19
Br.CC(NC(C)(C)C)C(=O)c1cccc(Cl)c1 (stereo not drawn) [Bupropion Hydrobromide 108],K.F. (%),[4]; [7],0.14%
PEG-6 stearate,HLB,[6]; [10],9.7
Polyglyceryl-10 decaoleate,HLB,[6]; Polyglycerized Fatty Acids,3.5
Polyglyceryl-10 tetraoleate,HLB,[6]; Polyglycerized Fatty Acids,6.2
Polyglyceryl-4 stearate,HLB,[6]; Polyglycerized Fatty Acids,5-6
CC(=O)OCC(O)CO (stereo not drawn) [Glyceryl acetate],HLB,[6]; [8],<10
PEG 400-1000 monostearate,HLB,[6]; [10],>10
Polyglyceryl-4 pentaoleate,HLB,[6]; Polyglycerized Fatty Acids,<10
PEG-400 dioleate,HLB,[6]; [11],>10
